# Reference: PMC10144301, “Antiseizure Properties of Histamine H3 Receptor Antagonists Belonging 3,4-Dihydroquinolin-2(1H)-Ones” (Molecules, 2023)
# Where “and” joins values, the source holds several entries; their conditions need not be identical. Identical values can stand only once.
# How the values were obtained:
# [1] = Rotarod test for neurotoxicity; assay type: in vivo; conditions: rotarod test, mice, i.p., three animals per group
# Description: A rotarod test was carried out to estimate the neurological safety of compounds 2h, 4a, and 4b.
# (§1) The neurological safety of the compounds 2h, 4a, and 4b was evaluated by the rotarod test. In the MES test, the definition of protection was the reduction or vanishing of the THLE in mice. In the PTZ test, the seizures were induced through the subcutaneous administration of PTZ (85 mg/kg). The antiseizure activities of the compounds in the PTZ test were evaluated by comparing the convulsion scores in mice between taking the compounds or not. VPA and PIT were used as positive drugs. To explore the anticonvulsive mechanism, compound 4a (10 mg/kg) was co-injected with RAMH (10 mg/kg). In addition, the THLE was recorded and compared with that of the mice treated by compound 4a alone. The detailed experimental operations in the MES, PTZ, and rotarod tests refer to our previous paper. All the animal experiments were carried out on 4-week-old KunMing male mice weighing from 20 to 25 g. The mice were housed collectively in polycarbonate cages in groups of 30, where they were maintained on a 12 h light/dark cycle in a temperature controlled (25 ± 2 °C) laboratory with free access to food and water. In the MES and PTZ models, seven animals were used in each group. In the rotarod test, three animals were used in each group. Each animal was used only once. All the experiments referring to animals were applied according to the Guide for the Care and Use of Laboratory Animals and were approved by the Medical Ethics Committee of Jinggangshan University, approval number: 220811002.
# [2] = tested on: maximal electroshock seizure (MES) model; test: Maximal electroshock seizure (MES) model; assay type: in vivo; conditions: mice
# Description: as §1, with “One of the two test models is the MES seizure model, another is the PTZ-induced seizure model. […] In addition, the administration of this dosage can minimize the impact of other possible side effects such as central inhibition and cardiac toxicity. […] In addition, the tested dose of VPA was 300 mg/kg. It could be seen that all animals in the control group experienced hindlimb stiffness after the electrical stimulation in the MES model. In the treated group, the definition of protection was the reduction or vanishing of the tonic hind limb extension (THLE) in mice. […] The neurological” for “The neurological”
# [3] = tested on: electrical kindling model of epilepsy; conditions: cited from earlier work
# [4] = tested on: maximal electroshock seizure (MES) model; set-up: method as in PMID 33325568; conditions: 10 mg/kg, previous work; cited from earlier work
# photosensitive epilepsy = conditions: dose of 30 mg or 60 mg; cited from earlier work
# [5] = tested on: PTZ-induced seizure model; set-up: method as in PMID 27853355; conditions: Sadek's study; cited from earlier work
# [6] = tested on: PTZ-induced seizure model; test: Pentylenetetrazole (PTZ)-induced seizure model; assay type: in vivo; conditions: mice, 10 mg/kg, i.p.; PTZ 85 mg/kg s.c.
# Description: One of the two test models is the MES seizure model, another is the PTZ-induced seizure model. […] In addition, the administration of this dosage can minimize the impact of other possible side effects such as central inhibition and cardiac toxicity. […] In addition, the tested dose of VPA was 300 mg/kg. The PTZ model was usually used to screen the antiepileptic candidates for the absence of seizures. In this work, compounds 2a-2i, 3a-3c, and 4a-4b were also evaluated for their antiseizure action in the PTZ model in mice, while using VPA as the positive drug. […] The failure of synthesized compounds in the PTZ model is expected because our previously reported H3R inhibitors were also ineffective in the PTZ model. […] A considerable increase in histamine levels was found in the brain after MES-induced seizures, whereas a tendency toward a decrease in histamine levels was observed after PTZ-kindled convulsions. […] The neurological safety of the compounds 2h, 4a, and 4b was evaluated by the rotarod test. In the MES test, the definition of protection was the reduction or vanishing of the THLE in mice. […] The antiseizure activities of the compounds in the PTZ test were evaluated by comparing the convulsion scores in mice between taking the compounds or not. […] In addition, the THLE was recorded and compared with that of the mice treated by compound 4a alone. […]
compound,measurement,setting,value
"Clc1ccc(CCCOCCCN2CCCCC2)cc1 [PIT, Pitolisant, reference compound]",Neurotoxicity,[1]; 10 mg/kg,0/3
same,Neurotoxicity,[1]; 30 mg/kg,0/3
same,Neurotoxicity,"[1]; 100 mg/kg, 100 mg/kg",no neurotoxicity and 0/3
same,"Duration of tonic hind limb extension (THLE), protection in MES model","[2]; 10 mg/kg, i.p., compared to control group",decreased the duration of THLE significantly
same,THLE induced by MES,[2]; 30 mg/kg,fully abolished the THLE
same,Dose dependence of protection in MES model,"[2]; doses of 3, 10 and 30 mg/kg",dose-dependent antiseizure activity
same,Antiseizure activity in electrical kindling model,[3],powerful antiseizure activity
same,Antiseizure activity,[4],showed an antiseizure activity
same,Effect on photosensitive epilepsy and EEG,photosensitive epilepsy,can inhibit photosensitive epilepsy
same,Effect in PTZ model,[5],failure
same,Protection against seizures induced by PTZ (seizure score),[6],did not exhibit protection
